{"source": "patent US20070111929A1", "about": "“Methods for the treatment of anxiety and for identification of anxiolytic agents” (Wyeth, priority 2005, published 2007)", "key": {"AT4 receptor": {"target": "T1, AT4 receptor (Mus musculus, UniProt Q8C129)", "T1 construct": "from tissue; host or cells: whole living Swiss Webster mouse (in vivo behavioural test)", "T1 sequence (Q8C129 1-1025)": "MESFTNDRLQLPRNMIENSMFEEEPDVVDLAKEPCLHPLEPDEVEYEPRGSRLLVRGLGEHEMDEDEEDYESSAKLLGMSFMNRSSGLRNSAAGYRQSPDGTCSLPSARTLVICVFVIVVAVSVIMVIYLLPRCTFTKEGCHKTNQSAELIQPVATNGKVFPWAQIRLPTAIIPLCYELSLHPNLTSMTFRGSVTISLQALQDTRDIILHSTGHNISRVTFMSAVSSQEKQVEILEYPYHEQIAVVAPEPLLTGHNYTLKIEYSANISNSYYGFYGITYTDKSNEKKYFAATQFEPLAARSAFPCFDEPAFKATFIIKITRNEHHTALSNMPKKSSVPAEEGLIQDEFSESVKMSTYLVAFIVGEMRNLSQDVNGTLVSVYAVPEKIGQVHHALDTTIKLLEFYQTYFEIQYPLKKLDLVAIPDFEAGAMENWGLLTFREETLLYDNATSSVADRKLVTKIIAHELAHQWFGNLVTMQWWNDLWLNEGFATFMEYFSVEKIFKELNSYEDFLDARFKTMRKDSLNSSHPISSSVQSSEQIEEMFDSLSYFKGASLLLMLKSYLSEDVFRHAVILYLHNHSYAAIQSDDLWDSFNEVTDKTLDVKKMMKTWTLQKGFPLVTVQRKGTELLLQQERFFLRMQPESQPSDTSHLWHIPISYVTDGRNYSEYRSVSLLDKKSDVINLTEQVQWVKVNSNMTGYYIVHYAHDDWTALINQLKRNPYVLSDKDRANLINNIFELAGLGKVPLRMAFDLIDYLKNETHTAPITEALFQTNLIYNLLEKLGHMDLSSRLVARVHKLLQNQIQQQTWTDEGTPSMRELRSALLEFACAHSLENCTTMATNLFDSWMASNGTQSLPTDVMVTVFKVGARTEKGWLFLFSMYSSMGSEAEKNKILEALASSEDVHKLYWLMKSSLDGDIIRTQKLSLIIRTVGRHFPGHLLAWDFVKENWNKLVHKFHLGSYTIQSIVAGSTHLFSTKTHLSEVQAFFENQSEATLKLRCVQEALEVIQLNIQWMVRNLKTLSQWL", "experiment": "mouse 4-plate model of anxiety, AT4 alone (Example 1)", "assay_type": "in vivo", "conditions": "acute; for number of punished crossings compared to vehicle: subcutaneous, 30 min before test, male Swiss Webster mice", "method": "Male Swiss Webster mice weighing 18-24 g were used in the 4 plate studies. Animals were housed in groups of 15 in an AAALAC-accredited facility (Wyeth Research, Princeton, N.J.) with food and water available ad libitum. Animals were maintained on a 12-hour light/dark cycle (lights on at 0600) with all studies performed during the light phase. On the day of experiments, mice were injected with AT4 (0, 1, 3 and 10 mg/kg) 30 minutes before the start of the study. Initially, mice were individually placed in a plexiglass cage (18×25×16 cm) with a floor consisting of four rectangular metal plates (8×11 cm), which are wired to a shock generator (Med Associates). In each experiment, mice were placed into the chamber and given an 18-sec habituation period, which was followed by a 1-min test session. After the habituation period, an electric shock (0.8 mA) was delivered for 3.0 sec when mice crossed from one plate to another. The crossing from one plate to the next is referred to as a “punished crossing.” The number of punished crossings during a 1-min test period was recorded by a computer. The mean number of punished crossings for each group was expressed as a percentage of the value observed in the control animals. Data were subjected to an overall one-way analysis of variance (ANOVA) and post-hoc comparisons were made by a contrast using least squares. Significant differences in treatment occurred when p<0.05 compared to vehicle."}, "oxytocin receptor": {"target": "T2, oxytocin receptor (Mus musculus, UniProt P97926)", "T2 construct": "from tissue; host or cells: whole living Swiss Webster mouse (in vivo behavioural test)", "T2 sequence (P97926 1-388)": "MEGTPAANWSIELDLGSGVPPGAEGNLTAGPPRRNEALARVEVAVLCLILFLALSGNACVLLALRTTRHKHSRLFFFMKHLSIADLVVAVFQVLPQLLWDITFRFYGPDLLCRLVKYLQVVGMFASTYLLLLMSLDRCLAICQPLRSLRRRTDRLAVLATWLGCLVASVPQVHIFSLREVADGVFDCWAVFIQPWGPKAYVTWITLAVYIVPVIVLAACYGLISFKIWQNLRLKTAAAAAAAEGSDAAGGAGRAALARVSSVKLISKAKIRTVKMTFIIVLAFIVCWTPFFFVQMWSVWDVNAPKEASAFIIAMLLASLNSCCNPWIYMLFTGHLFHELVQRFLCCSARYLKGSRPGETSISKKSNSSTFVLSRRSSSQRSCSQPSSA", "experiment": "mouse 4-plate model, AT4 with the oxytocin receptor antagonist WAY-162720 (Example 2)", "assay_type": "in vivo", "conditions": "AT4 3 mg/kg alone, acute, 30 min before test", "procedure": "Male Swiss Webster mice weighing 18-24 g were used in the 4 plate studies. […] Animals were maintained on a 12-hour light/dark cycle (lights on at 0600) with all studies performed during the light phase. On the day of experiments, mice were injected with AT4 (0, 1, 3 and 10 mg/kg) 30 minutes before the start of the study. Initially, mice were individually placed in a plexiglass cage (18×25×16 cm) with a floor consisting of four rectangular metal plates (8×11 cm), which are wired to a shock generator (Med Associates). In each experiment, mice were placed into the chamber and given an 18-sec habituation period, which was followed by a 1-min test session. After the habituation period, an electric shock (0.8 mA) was delivered for 3.0 sec when mice crossed from one plate to another. The crossing from one plate to the next is referred to as a “punished crossing.” The number of punished crossings during a 1-min test period was recorded by a computer. […] Data were subjected to an overall one-way analysis of variance (ANOVA) and post-hoc comparisons were made by a contrast using least squares. Significant differences in treatment occurred when p<0.05 compared to vehicle.\nFor these studies, the same 4-plate procedures were used as described in Example 1, above. […] A 3-sec time followed the delivery of each shock and a computer recorded the number of punished crossings during a 1-min test period. […]"}}}
{"smiles": "CC[C@H](C)[C@H](NC(=O)[C@H](Cc1ccc(O)cc1)NC(=O)[C@@H](N)C(C)C)C(=O)N[C@@H](Cc1cnc[nH]1)C(=O)N1CCC[C@H]1C(=O)N[C@@H](Cc1ccccc1)C(=O)O", "note": "[AT4, Val-Tyr-Ile-His-Pro-Phe]", "values": [{"measurement": "number of punished crossings compared to vehicle", "setting": "AT4 receptor; AT4 3 mg/kg", "value": "significantly (p<0.05) increased"}, {"measurement": "number of punished crossings compared to vehicle", "setting": "AT4 receptor; AT4 10 mg/kg", "value": "significantly (p<0.05) increased"}, {"measurement": "anxiolytic-like effect in the 4-plate model, dose dependence", "setting": "AT4 receptor; AT4 1, 3 and 10 mg/kg subcutaneous, FIG. 1", "value": "dose-dependent"}, {"measurement": "number of punished crossings compared to vehicle control", "setting": "oxytocin receptor", "value": "increased"}]}
